Experiments:
Conditions in all cases: dose 6.7 µg/ml
[1] = target: T1, Tyrosine-protein phosphatase non-receptor type 1 (Homo sapiens) (UniProt P18031); assay: Inhibition of human recombinant PTP1B expressed in Escherichia coli assessed as inhibition of phosphatase activity by measuring p-nitrophenyl phosphate at 6.7 microg/ml measured after 60 mins
T1 sequence (whole entry): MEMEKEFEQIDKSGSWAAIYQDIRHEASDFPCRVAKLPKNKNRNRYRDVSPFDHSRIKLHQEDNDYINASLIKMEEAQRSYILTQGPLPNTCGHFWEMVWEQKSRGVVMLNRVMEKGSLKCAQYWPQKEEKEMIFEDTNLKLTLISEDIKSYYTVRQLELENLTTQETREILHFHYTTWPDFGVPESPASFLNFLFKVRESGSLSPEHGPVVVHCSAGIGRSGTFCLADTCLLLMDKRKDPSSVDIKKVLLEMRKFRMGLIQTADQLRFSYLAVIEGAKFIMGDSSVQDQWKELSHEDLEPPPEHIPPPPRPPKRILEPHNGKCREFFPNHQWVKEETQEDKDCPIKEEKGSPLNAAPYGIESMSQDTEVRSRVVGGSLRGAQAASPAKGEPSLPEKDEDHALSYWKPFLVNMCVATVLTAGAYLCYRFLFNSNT

[2] = target: T2, Tyrosine-protein phosphatase non-receptor type 11 (Homo sapiens) (UniProt Q06124); assay: Inhibition of human recombinant SHP2 expressed in Escherichia coli assessed as inhibition of phosphatase activity by measuring p-nitrophenyl phosphate at 6.7 microg/ml measured after 60 mins
T2 sequence (whole entry): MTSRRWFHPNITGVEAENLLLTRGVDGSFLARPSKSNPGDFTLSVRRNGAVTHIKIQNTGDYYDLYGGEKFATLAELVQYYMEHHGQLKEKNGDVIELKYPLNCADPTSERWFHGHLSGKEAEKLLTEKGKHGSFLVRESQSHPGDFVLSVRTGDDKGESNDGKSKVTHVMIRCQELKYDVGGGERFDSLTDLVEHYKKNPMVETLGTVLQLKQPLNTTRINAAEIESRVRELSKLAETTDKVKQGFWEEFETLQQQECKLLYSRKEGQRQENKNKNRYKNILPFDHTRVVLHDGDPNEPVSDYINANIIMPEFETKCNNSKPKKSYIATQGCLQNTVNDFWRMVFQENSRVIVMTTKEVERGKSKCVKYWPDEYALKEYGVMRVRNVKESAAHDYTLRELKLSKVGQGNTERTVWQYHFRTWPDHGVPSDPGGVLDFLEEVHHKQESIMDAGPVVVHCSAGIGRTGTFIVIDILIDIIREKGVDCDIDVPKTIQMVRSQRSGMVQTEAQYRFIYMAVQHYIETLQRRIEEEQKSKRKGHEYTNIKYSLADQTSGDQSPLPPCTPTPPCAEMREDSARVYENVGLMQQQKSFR

[3] = target: T3, Tyrosine-protein phosphatase non-receptor type 9 (Homo sapiens) (UniProt P43378); assay: Inhibition of human recombinant MEG2 expressed in Escherichia coli assessed as inhibition of phosphatase activity by measuring p-nitrophenyl phosphate at 6.7 microg/ml measured after 60 mins
T3 sequence (whole entry): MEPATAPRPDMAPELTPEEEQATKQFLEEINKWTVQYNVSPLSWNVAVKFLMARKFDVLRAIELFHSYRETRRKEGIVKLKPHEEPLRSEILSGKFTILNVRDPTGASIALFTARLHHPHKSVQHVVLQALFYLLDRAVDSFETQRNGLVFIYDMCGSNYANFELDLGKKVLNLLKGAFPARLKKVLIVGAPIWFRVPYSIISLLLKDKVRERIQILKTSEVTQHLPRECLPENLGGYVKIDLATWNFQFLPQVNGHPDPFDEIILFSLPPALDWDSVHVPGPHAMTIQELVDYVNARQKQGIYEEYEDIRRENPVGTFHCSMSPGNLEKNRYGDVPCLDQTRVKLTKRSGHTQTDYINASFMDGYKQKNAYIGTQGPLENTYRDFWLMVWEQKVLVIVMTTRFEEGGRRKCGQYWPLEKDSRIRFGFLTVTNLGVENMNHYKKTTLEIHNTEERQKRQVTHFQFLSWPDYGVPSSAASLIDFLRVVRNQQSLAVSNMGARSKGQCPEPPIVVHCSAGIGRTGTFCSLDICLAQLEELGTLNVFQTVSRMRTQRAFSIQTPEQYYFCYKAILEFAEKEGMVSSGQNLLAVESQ

Measured: inhibition

COC(=O)CC1=C(C)[C@@H]2C[C@@]3(C)C(=O)O[C@H]4O[C@@H](C)[C@@]5(O)O[C@@H]([C@@H]6O[C@]16C(C)(C)O)[C@]2(C)[C@@]5(C(=O)OC)[C@H]43
< 60%: all assays above

COC(=O)[C@]12C3=C(C)O[C@@H]4OC(=O)[C@](C)(C[C@H]5C(C)=C6CC(=O)O[C@@]6(C(C)(C)O)[C@@H](C[C@@]51C)O3)[C@@H]42
< 60%: all assays above

CC1=C2CC(=O)OC(C)(C)[C@]23O[C@@H]3[C@@H]2O[C@@]3(O)[C@@H](C)O[C@H]4OC(=O)[C@]5(C)C[C@H]1[C@]2(C)[C@@]31C(=O)O[C@@]415
< 60%: all assays above

COC(=O)[C@@]12[C@@]3(C)[C@@H]4C=C5C(=CC(=O)OC5(C)C)[C@@](C)(O)[C@@H]3C[C@@]3(C)C(=O)O[C@@H](O[C@@H](C)[C@@]1(O)O4)[C@@]23O
< 60%: all assays above

COC(=O)[C@]12C3=C(C)O[C@@H]4OC(=O)[C@](C)(C[C@H]5C(C)=C6CC(=O)O[C@@]6(C(C)(C)O)[C@H](O3)[C@H](O)[C@@]51C)[C@@H]42
< 60%: all assays above

COC(=O)CC1=C(C)[C@@H]2C[C@@]3(C)C(=O)O[C@H]4O[C@@H](C)[C@@]5(O)O[C@@H]([C@@H]6O[C@]16C(C)(C)O)[C@]2(C)[C@@]5(C(=O)OC)[C@]43O
< 60%: all assays above

CC1=C2CC(=O)OC(C)(C)C2=CC[C@@]2(C)[C@H]1C[C@@](C)(C(=O)O)[C@]13COC(=O)[C@@]12C(=O)[C@H](C)O3
< 60%: all assays above

COC(=O)[C@]12C(=O)[C@H](C)O[C@@H]3OC(=O)[C@](C)(C[C@H]4C(C)=C5CC(=O)OC(C)(C)C5=CC[C@@]41C)[C@@H]32 [BERKELEYACETAL A]
< 60%: all assays above

COC(=O)[C@]12[C@@H]3[C@H]4OC(=O)[C@]3(C)C[C@H]3C(C)=C5CC(=O)OC(C)(C)[C@@]56O[C@H]6[C@H](O[C@]1(O)[C@H](C)O4)[C@@]32C
< 60%: all assays above

COC(=O)CC1=C(C)[C@H]2C[C@]3(C)C(=O)O[C@@H]4O[C@H](C)[C@]5(O)O[C@@H]([C@H]6O[C@@]16C(C)(C)O)[C@@]2(C)[C@@]51C(=O)O[C@@]413
< 60%: all assays above

COC(=O)[C@]12[C@@H]3[C@H]4OC(=O)[C@]3(C)CC3=C(C)C5=C(C[C@H](O[C@]1(O)[C@H](C)O4)[C@@]32C)C(C)(C)OC(=O)C5
< 60%: all assays above

COC(=O)[C@]12C(=O)[C@@](C)(O)C(=O)[C@](C)(C[C@H]3C(C)=C4CC(=O)OC(C)(C)C4=CC[C@@]31C)[C@]21CO1
< 60%: all assays above

COC(=O)[C@]12[C@@H]3[C@@H](O)O[C@@H](C)[C@@]14OC(=O)[C@]3(C)C[C@H]1C(C)=C3CC(=O)OC(C)(C)[C@@]35O[C@H]5[C@H](O4)[C@@]12C
< 60%: all assays above
